Laboratory results reported in PubChem BioAssay (NCI).
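GI50 = concentration required for 50% inhibition of growth. At the TGI there is no net growth.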

Columns and labels:
Assay in all cases: NCI anticancer screen, dose series, 384-well format
[1] = system: NCI-H522 lung
[2] = system: NCI/ADR-RES ovarian
[3] = system: MDA-MB-468 breast
[4] = system: HOP-62 NSCLC
[5] = system: SK-MEL-5 melanoma
[6] = system: A549 NSCLC
[7] = system: HS 578T breast
[8] = system: TK-10 renal
[9] = system: MDA-MB-231 breast
[10] = system: SK-MEL-28 melanoma
[11] = system: ACHN renal
[12] = system: OVCAR-3 ovarian
[13] = system: PC-3 prostate
[14] = system: NCI-H226 lung
[15] = system: UACC-257 melanoma
[16] = system: HL-60(TB) leukemia
[17] = system: HCT-15 colon
[18] = system: UACC-62 melanoma
[19] = system: HCC-2998 colon
[20] = system: NCI-H460 NSCLC
[21] = system: MCF7 breast
[22] = system: DU-145 prostate
[23] = system: MALME-3M melanoma
[24] = system: U251 glioblastoma
[25] = system: OVCAR-8 ovarian
[26] = system: MOLT-4 leukemia
[27] = system: SR leukemia

In the case of `COc1cccc2[nH]c3c4c(c5c(c3c12)C(=O)N(CN1CCN(C)CC1)C5=O)CCC4`, the GI50 [1] is reported as 7.53 µM, the TGI [1] is reported as 21.5 µM and the GI50 [2] is reported as 8.24 µM. The TGI [2] was 21 µM, the GI50 [3] was 8.27 µM and the TGI [3] was 21.1 µM. The GI50 [4] was 11.5 µM, the TGI [4] was 24 µM and the GI50 [5] was 3.44 µM. It also gave a TGI [5] of 14.3 µM, a GI50 [6] of 12.5 µM and a TGI [6] of 26.3 µM. The GI50 [7] was 15 µM, the TGI [7] was 29 µM and the GI50 [8] was 10.7 µM. It also gave a TGI [8] of 22.7 µM, a GI50 [9] of 16.1 µM and a TGI [9] of 29.9 µM. It also gave a GI50 [10] of 14.5 µM, a TGI [10] of 28.3 µM and a GI50 [11] of 14.9 µM. It also gave a TGI [11] of 30.5 µM, a GI50 [12] of 13.2 µM and a TGI [12] of 26.7 µM. It also gave a GI50 [13] of 11.5 µM, a TGI [13] of 23.8 µM and a GI50 [14] of 15.9 µM. It also gave a TGI [14] of 33.2 µM, a GI50 [15] of 17.8 µM and a TGI [15] of 33 µM. For the same molecule, the GI50 [16] was 10.7 µM, the TGI [16] was 22.7 µM and the GI50 [17] was 11.5 µM. It also gave a TGI [17] of 24.8 µM, a GI50 [18] of 12.5 µM and a TGI [18] of 25.3 µM. For the same molecule, the GI50 [19] was 21 µM, the TGI [19] was 66.1 µM and the GI50 [20] was 6.97 µM. For the same molecule, the TGI [20] was 19.8 µM, the GI50 [21] was 12.5 µM and the TGI [21] was 26.9 µM. The GI50 [22] was 14.4 µM, the TGI [22] was 27.9 µM and the GI50 [23] was 13.5 µM. It also gave a TGI [23] of 26.5 µM, a GI50 [24] of 12.1 µM and a TGI [24] of 24.6 µM. For the same molecule, the GI50 [25] was 9.47 µM, the TGI [25] was 23.1 µM and the GI50 [26] was 6.13 µM. It also gave a TGI [26] of 19.1 µM, a GI50 [27] of 1.83 µM and a TGI [27] of 4.8 µM.
